Bridge positions count the residues as written; N and C are the ends. Ends that are not written are not given here.
Key:
[1] = test system: kidney; experiment: Homing of individual phage to kidney compared with brain; format: in vivo, mice; conditions: phage expressing the peptide
Procedure: The same methodology used to isolate phage expressing brain homing peptides was used to isolate phage expressing peptides that home to kidney. In these experiments, brain was used as the control organ. A mixture of the CX5C (SEQ ID NO: 36) and the CX6C (SEQ ID NO: 37) libraries was administered as described above. Homing of phage to the kidney was obtained and an approximately 3× to 7× enrichment of phage homing to kidney was observed following a second round of in vivo panning.
The amino acid sequences were determined for the inserts in 48 cloned phage that homed to kidney. The peptides expressed by these phage were represented by two predominant sequences, CLPVASC (SEQ ID NO: 21; 46% of the clones sequenced) and CGAREMC (SEQ ID NO: 22; 17% of the clones; see Table 2). In addition, the peptide CKGRSSAC (SEQ ID NO: 23) appeared three times and three other peptides were present twice each.

[2] = test system: brain; experiment: Homing of individually amplified phage to brain compared with kidney (TU recovered); format: in vivo, mice; conditions: phage displaying the peptide, same input titer, TU recovered from each organ
Procedure: To determine the specificity of brain homing of the individual motifs identified, phage displaying the predominant motifs were amplified individually, diluted to the same input titer and administered to mice. Following administration, brain and kidney were removed and the number of TU of phage in each organ was determined. […] Specifically, the ratio of selective homing (brain:kidney) was about 8 for CNSRLHLRC (SEQ ID NO: 1) and for CLSSRLDAC (SEQ ID NO: 3), 4 for CENWWGDVC (SEQ ID NO: 2) and 9 for […] (SEQ ID NO: 16).

[3] = test system: brain; experiment: Peptide competition: synthetic cyclic peptide co-injected with brain homing phage; format: in vivo, mice; conditions: 100 μg synthetic cyclic peptide co-injected with 1×10^8 TU phage
Procedure: In order to confirm the specificity of a peptide for directing homing to a selected organ, peptide competition experiments were performed. The cyclic peptide, CLSSRLDAC (SEQ ID NO: 3), which is one of the brain homing peptides (see Table 1) was synthesized (Immunodynamics; La Jolla Calif.) and purified by HPLC. The effect on the homing of phage expressing CLSSRLDAC (SEQ ID NO: 3), CENWWGDVC (SEQ ID NO: 2) or […] (SEQ ID NO: 16) to the brain was examined in order to determine whether co-administration of the synthetic peptide affected homing of the phage.
Phage expressing CLSSRLDAC (SEQ ID NO: 3), CENWWGDVC (SEQ ID NO: 2) or […] (SEQ ID NO: 16) were titrated to the same concentration and 1×10^8 TU was injected into mice alone, or with 100 μg purified synthetic cyclic CLSSRLDAC (SEQ ID NO: 3) peptide. The synthetic CLSSRLDAC (SEQ ID NO: 3) peptide inhibited the homing of phage expressing CLSSRLDAC (SEQ ID NO: 3) by about 60%.

[4] = test system: brain; experiment: Homing of 125I-peptide/RBC complex to brain and kidney, alone or with unlabeled peptide; format: in vivo, mouse; conditions: for effect of coadministered unlabeled peptide on brain homing of the CLSSRLDAC/RBC complex / effect of coadministered unlabeled peptide on localization of the CLSSRLDAC/RBC complex in the kidney: 10 mM unlabeled peptide coadministered
Procedure: The synthetic cyclic CLSSRLDAC (SEQ ID NO: 3) peptide (1 mg) was labeled with iodine-125 using the Bolton and Hunter reagent (Amersham; Arlington Heights Ill.). Labeled peptide was purified by reverse phase HPLC on Sep-Pak™ cartridges (Waters, Millipore Corp.; Milford Pa.) and the ^125I-peptide (200 μg) was coupled to 1 ml glutaraldehyde-stabilized sheep RBC (Sigma Chemical Co.; St. Louis Mo.) according to the manufacturer's instructions.
After 2 min, each mouse was perfused through the heart with 50 ml DMEM and the brain and kidney were removed and assayed for radioactivity.
Approximately twice as much of the CLSSRLDAC/RBC complex (SEQ ID NO: 3) homed to brain than to kidney. […] Coadministration of unlabeled CVRLNSLAC (SEQ ID NO: 43) had no effect on selective homing of the complex to brain and no effect on the non-specific localization of the complex in the kidney.

CKGRSSAC (displayed on phage)
ratio of selective kidney:brain homing [1]: 2

CLSSRLDAC (disulfide 1-9 (inferred)) [also synthesized as cyclic peptide]
ratio of selective homing (brain:kidney) [2]: about 8 | effect on homing to brain of CENWWGDVC phage [3]: did not affect | inhibition of homing to brain of phage expressing CLSSRLDAC [3]: about 60% | effect of coadministered unlabeled peptide on brain homing of the CLSSRLDAC/RBC complex [4]: essentially completely inhibited | effect of coadministered unlabeled peptide on localization of the CLSSRLDAC/RBC complex in the kidney [4]: had no effect

CLPVASC (displayed on phage)
ratio of selective kidney:brain homing [1]: 7

CNSRLHLRC (displayed on phage)
ratio of selective homing (brain:kidney) [2]: about 8

CGAREMC (displayed on phage)
ratio of selective kidney:brain homing [1]: 3

CENWWGDVC (displayed on phage)
ratio of selective homing (brain:kidney) [2]: ~4

WRCVLREGPAGGCAWFNRHRL (displayed on phage)
ratio of selective homing (brain:kidney) [2]: ~9

CVRLNSLAC
effect of coadministered unlabeled peptide on brain homing of the CLSSRLDAC/RBC complex [4]: had no effect | effect of coadministered unlabeled peptide on localization of the CLSSRLDAC/RBC complex in the kidney [4]: no effect | brain homing activity ([4]; stated for the control peptide): no brain homing activity
